Where two headings read alike, the source gives them in different places. Starred links: 1 amine or outer side, 2 acyl side, 3 side chain; linkers in the order of their positions; H or OH if unused. Non-standard residues stand in square brackets, D forms with d. Residues, ends and D or L forms follow the SMILES beside them. *: point of attachment. DOTAGA = O=C(O)CN1CCN(CC(=O)O)CCN(C(CCC(=O)*)C(=O)O)CCN(CC(=O)O)CC1; X2 = O=C(O)CN1CCN(CC(=O)O)CCN([C@H](CCC(=O)*)C(=O)O)CCN(CC(=O)O)CC1; Benzoyl(4-SiFtBu2) = CC(C)(C)[Si](F)(c1ccc(C(=O)*)cc1)C(C)(C)C; d(γGlu) = O=C(O)[C@@H](CCC(=O)[*:2])N[*:1]; Nle = CCCC[C@H](N)C(=O)O; dDap = NC[C@@H](N)C(=O)O
How the values were obtained:
[1] = molecular target: T1, CCK-2R (Rattus norvegicus, UniProt P30553); test: Determination of IC50: CCK-2R affinity on AR4-2J cells, competition with [^177Lu]Lu-DOTA-PP-F11N; assay type: binding
T1 construct: The CCK-2R expressing rat pancreatic tumor cells AR4-2J; host or cells: AR4-2J rat pancreatic tumor cells
T1 sequence (P30553 1-452): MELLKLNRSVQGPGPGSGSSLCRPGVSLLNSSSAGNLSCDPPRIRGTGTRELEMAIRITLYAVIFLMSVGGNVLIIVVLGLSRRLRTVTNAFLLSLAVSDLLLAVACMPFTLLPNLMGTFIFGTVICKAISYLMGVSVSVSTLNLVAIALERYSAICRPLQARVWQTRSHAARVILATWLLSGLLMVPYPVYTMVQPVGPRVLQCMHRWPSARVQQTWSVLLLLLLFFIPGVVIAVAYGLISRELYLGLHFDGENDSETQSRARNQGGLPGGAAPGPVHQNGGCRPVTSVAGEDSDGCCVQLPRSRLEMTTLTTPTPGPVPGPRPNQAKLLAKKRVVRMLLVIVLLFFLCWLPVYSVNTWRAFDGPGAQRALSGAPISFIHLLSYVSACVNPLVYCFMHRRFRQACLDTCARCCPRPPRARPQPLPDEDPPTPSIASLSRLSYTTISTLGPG
Outline: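 Competitive displacement of 0.3 pmol/well [177Lu]Lu-DOTA-PP-F11N by compounds (10^-10 to 10^-4 M) on AR4-2J cells in BSA-supplemented medium, 3 h at 37 °C. Free label was collected from medium plus PBS rinse, and cell-bound label was recovered with 1 M NaOH, both measured by γ-counter. Each IC50 was determined twice, in triplicate.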

[2] = n-Octanol-PBS distribution coefficient (logD7.4); assay type: physicochemical; conditions: pH = 7.4, ^177Lu-labeled
Protocol: Approximately 1 MBq of the labeled tracer was dissolved in 1 mL of a 1/1 mixture (v/v) of phosphate buffered saline (PBS, pH = 7.4) and n-octanol in an Eppendorf tube (1.5 mL). After vigorous mixing of the suspension for 3 min at rt, the vial was centrifuged at 9,000 rpm for 5 min (Biofuge 15, Heraeus Sepatech, Osterode, Germany) and 200 µL aliquots of both layers were measured in a γ-counter. The experiment was repeated at least five times.

[3] = read-out: IC50 [nM] (n = 3), ^natLu-labeled; AR4-2J cells; ^natLu-labeled

| SMILES | IC50 ([1]; AR4-2J cells; ^natLu-labeled; read-out: IC50 [nM] (n = 3), ^natLu-labeled) | logD7.4 (n ≥ 5), ^177Lu-labeled [2] | IC50 [1, 3] |
| --- | --- | --- | --- |
| CCCC[C@H](NC(=O)[C@H](Cc1c[nH]c2ccccc12)NC(=O)CNC(=O)[C@H](Cc1ccc(O)cc1)NC(=O)[C@H](C)NC(=O)CC[C@@H](NC(=O)CC[C@@H](NC(=O)CC[C@@H](NC(=O)[C@@H](CNC(=O)c1ccc([Si](F)(C(C)(C)C)C(C)(C)C)cc1)NC(=O)CC[C@@H](NC(=O)CC[C@@H](NC(=O)CC[C@@H](NC(=O)CC[C@H](C(=O)O)N1CCN(CC(=O)O)CCN(CC(=O)O)CCN(CC(=O)O)CC1)C(=O)O)C(=O)O)C(=O)O)C(=O)O)C(=O)O)C(=O)O)C(=O)N[C@@H](CC(=O)O)C(=O)N[C@@H](Cc1ccccc1)C(N)=O [DOTAGA-MG-SiFA-16, DOTAGA-γ-glu-[dap(SiFA)^3]γ-F11N] ({X2-d(γGlu)-d(γGlu)-d(γGlu)}-[dDap](Benzoyl(4-SiFtBu2))[d(γGlu)][d(γGlu)][d(γGlu)]AYGW[Nle]DF-NH2) | 68.5 ± 11.4 nM | −2.57 ± 0.06 |  |
| CCCC[C@H](NC(=O)[C@H](Cc1c[nH]c2ccccc12)NC(=O)CNC(=O)[C@H](Cc1ccc(O)cc1)NC(=O)[C@H](C)NC(=O)CC[C@@H](NC(=O)CC[C@@H](NC(=O)CC[C@@H](NC(=O)CC[C@@H](NC(=O)[C@@H](CNC(=O)c1ccc([Si](F)(C(C)(C)C)C(C)(C)C)cc1)NC(=O)CC[C@@H](NC(=O)CC[C@@H](NC(=O)CCC(C(=O)O)N1CCN(CC(=O)O)CCN(CC(=O)O)CCN(CC(=O)O)CC1)C(=O)O)C(=O)O)C(=O)O)C(=O)O)C(=O)O)C(=O)O)C(=O)N[C@@H](CC(=O)O)C(=O)N[C@@H](Cc1ccccc1)C(N)=O (some centres unmarked) [DOTAGA-MG-SiFA-17, DOTAGA-γ-glu-[dap(SiFA)^2]γ-F11N] ({DOTAGA-d(γGlu)-d(γGlu)}-[dDap](Benzoyl(4-SiFtBu2))[d(γGlu)][d(γGlu)][d(γGlu)][d(γGlu)]AYGW[Nle]DF-NH2) |  | −2.26 ± 0.05 | 51.3 ± 9.3 nM |
| CCCC[C@H](NC(=O)[C@H](Cc1c[nH]c2ccccc12)NC(=O)CNC(=O)[C@H](Cc1ccc(O)cc1)NC(=O)[C@H](C)NC(=O)CC[C@@H](NC(=O)CC[C@@H](NC(=O)CC[C@@H](NC(=O)CC[C@@H](NC(=O)CC[C@@H](NC(=O)[C@@H](CNC(=O)c1ccc([Si](F)(C(C)(C)C)C(C)(C)C)cc1)NC(=O)CC[C@@H](NC(=O)CCC(C(=O)O)N1CCN(CC(=O)O)CCN(CC(=O)O)CCN(CC(=O)O)CC1)C(=O)O)C(=O)O)C(=O)O)C(=O)O)C(=O)O)C(=O)O)C(=O)N[C@@H](CC(=O)O)C(=O)N[C@@H](Cc1ccccc1)C(N)=O (some centres unmarked) [DOTAGA-MG-SiFA-18, DOTAGA-γ-glu-[dap(SiFA)^1]γ-F11N] ({DOTAGA-d(γGlu)}-[dDap](Benzoyl(4-SiFtBu2))[d(γGlu)][d(γGlu)][d(γGlu)][d(γGlu)][d(γGlu)]AYGW[Nle]DF-NH2) |  | −2.50 ± 0.02 | 33 ± 11.1 nM |
| CCCC[C@H](NC(=O)[C@H](Cc1c[nH]c2ccccc12)NC(=O)CNC(=O)[C@H](Cc1ccc(O)cc1)NC(=O)[C@H](C)NC(=O)[C@@H](CCC(=O)O)NC(=O)[C@@H](CCC(=O)O)NC(=O)[C@@H](CCC(=O)O)NC(=O)[C@@H](CCC(=O)O)NC(=O)[C@@H](CCC(=O)O)NC(=O)[C@@H](CCC(=O)O)NC(=O)[C@@H](CCC(=O)O)NC(=O)[C@@H](CNC(=O)c1ccc([Si](F)(C(C)(C)C)C(C)(C)C)cc1)NC(=O)CCC(C(=O)O)N1CCN(CC(=O)O)CCN(CC(=O)O)CCN(CC(=O)O)CC1)C(=O)N[C@@H](CC(=O)O)C(=O)N[C@@H](Cc1ccccc1)C(N)=O (some centres unmarked) [DOTAGA-MG-SiFA-20, DOTAGA-dap(SiFA)-glu-F11N] ({DOTAGA}-[dDap](Benzoyl(4-SiFtBu2))[dE][dE][dE][dE][dE][dE][dE]AYGW[Nle]DF-NH2) |  | −2.19 ± 0.08 | 58 ± 11 nM |
